Results published in patent US9573956B2, “Compounds as dual inhibitors of phosphodiesterases and histone deacetylases” (FUNDACIÓN PARA LA INVESTIGACIÓN MÉDICA APLICADA, priority 2013, dated 2017).

Key:
PDE4D7 = PDE4D7 (Homo sapiens, UniProt Q08499); assay: PDE enzyme activity assay (HTRF cGMP), PDE4D7; type: biochemical; details: recombinant enzyme; read-out: PDE4D7 inhibition (IC50)
Text: The biochemical assay to measure PDE5A, PDE9A isoform b, PDE4D7, and PDE4A1 enzyme activities relies on the HTRF cGMP assay kit from CisBio (CisBio, Cat. #62GM2PEB), that determines the amount of cGMP present in the reaction. The enzymes were obtained from BPS Biosciences (GenBank Accession number for PDE5A: NM_001083, Cat. #60050; PDE9A: NM_001001567, Cat. #60090; PDE4D7: NM_001165899, Cat. #60047; and PDE4A1: U97584, Cat. #60040) and they are full-length with N-terminal GST tag. They were expressed in a baculovirus infected Sf9 cell expression system.
For each enzyme, enzyme activity assay was carried out in a 384-well plate in a final volume of 20 μL, as follows: • 2.5 μL of vehicle or studied compound 4× concentrated prepared in assay buffer containing 50 mM Tris-HCl, 6 mM MgCl2, pH 7.4 (PDE5A, PDE4D7, PDE4A1) and additionally 0.03% Tween-20 (PDE9A). Final percentage of DMSO was 0.5%. • 2.5 μL of PDE5A (7 μg/mL) or 2.5 μL PDE9A (0.2 μg/mL) or 2.5 μL PDE4D7 (1.25 μg/mL) or 2.5 μL PDE4A1 (1.5 μg/mL) diluted in assay buffer. […]
Fluorescence of each well was determined at […] using the plate reader EnVision (Perkin-Elmer). Results were calculated from the 665 nm/620 nm ratio. […]

PDE4A1 = molecular target: T1, PDE4A1 (Homo sapiens, UniProt P27815); assay: PDE enzyme activity assay (HTRF cGMP), PDE4A1; type: biochemical; details: recombinant enzyme; read-out: PDE4A1 inhibition (IC50)
T1 construct: they are full-length with N-terminal GST tag; GST (N); purchased BPS Biosciences 60040; host or cells: baculovirus infected Sf9 cells
T1 sequence (P27815 1-647 isoform P27815-4): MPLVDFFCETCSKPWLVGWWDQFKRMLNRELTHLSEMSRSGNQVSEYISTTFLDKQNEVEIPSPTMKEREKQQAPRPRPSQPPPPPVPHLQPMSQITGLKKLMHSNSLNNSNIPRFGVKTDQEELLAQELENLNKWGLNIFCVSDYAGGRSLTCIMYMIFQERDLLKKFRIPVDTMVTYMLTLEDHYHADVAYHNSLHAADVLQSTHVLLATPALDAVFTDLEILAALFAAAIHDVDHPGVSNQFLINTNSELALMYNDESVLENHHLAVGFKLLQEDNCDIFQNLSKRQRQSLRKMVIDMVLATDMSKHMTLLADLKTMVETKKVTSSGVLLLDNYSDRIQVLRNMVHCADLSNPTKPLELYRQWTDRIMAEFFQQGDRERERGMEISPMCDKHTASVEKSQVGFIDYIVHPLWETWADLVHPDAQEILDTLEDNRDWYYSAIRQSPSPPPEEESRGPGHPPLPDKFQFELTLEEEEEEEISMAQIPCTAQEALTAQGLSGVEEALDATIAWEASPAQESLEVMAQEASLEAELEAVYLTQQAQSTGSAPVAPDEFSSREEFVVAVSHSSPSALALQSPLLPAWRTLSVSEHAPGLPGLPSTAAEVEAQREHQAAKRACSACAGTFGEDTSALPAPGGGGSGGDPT

HDAC1 = HDAC1 (Homo sapiens, UniProt Q13547); assay: HDAC enzyme activity assay (fluorogenic substrate), HDAC1; type: biochemical; details: recombinant enzyme; read-out: HDAC1 inhibition (IC50)
Sequence of HDAC1 (Q13547 whole entry): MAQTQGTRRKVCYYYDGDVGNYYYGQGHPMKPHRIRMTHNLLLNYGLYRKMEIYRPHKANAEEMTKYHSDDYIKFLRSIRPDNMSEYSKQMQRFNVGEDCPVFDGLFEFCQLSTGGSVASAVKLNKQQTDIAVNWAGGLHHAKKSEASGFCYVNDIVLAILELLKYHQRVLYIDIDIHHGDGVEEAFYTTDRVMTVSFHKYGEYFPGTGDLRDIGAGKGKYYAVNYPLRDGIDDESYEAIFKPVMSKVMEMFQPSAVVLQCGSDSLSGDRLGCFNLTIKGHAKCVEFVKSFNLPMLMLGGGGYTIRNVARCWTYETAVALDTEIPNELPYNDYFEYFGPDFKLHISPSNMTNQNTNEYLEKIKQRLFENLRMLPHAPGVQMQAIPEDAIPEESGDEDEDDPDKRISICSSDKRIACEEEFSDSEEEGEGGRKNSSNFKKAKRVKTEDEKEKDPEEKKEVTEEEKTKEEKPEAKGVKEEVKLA

AcH3 = assay: In-vivo activity, hippocampus of wild type mice: AcH3; design: species or system mouse; details: i.p. 40 mg/kg, hippocampus one hour later
Method: (§1) To determine the ability of the compounds to inhibit HDAC and PDE in the brain, the compound was administered to wild type mice by i.p. at a dose of 40 mg/kg (n=3). Another group of animals received the vehicle (1/1/8, v:v:v, DMSO/Tween 20/saline). One hour later, mice were sacrificed by cervical dislocation and their hippocampus was quickly dissected from the brains.
(§2) Total tissue homogenates were obtained by homogenizing the hippocampus in a cold lysis buffer with protease inhibitors (0.2 M NaCl, 0.1 M HEPES, 10% glycerol, 200 mM NaF, 2 mM Na4P2O7, 5 mM EDTA, 1 mM EGTA, 2 mM DTT, 0.5 mM PMSF, 1 mM Na3VO4 and Complete Protease Inhibitor Cocktail, Roche Diagnostics). The homogenate was then centrifuged at 14,000×g at 4° C. for 20 min and the supernatant aliquoted and stored at −80° C. Total protein concentrations were determined using the BioRad Bradford protein assay (BioRad Laboratories). Protein samples were analyzed as described in the “in vitro” section.

[1] = tested on: acetylated histone 3 at Lys9 (AcH3K9); assay: HDAC activity in wild type primary neurons (Western blot AcH3K9); type: cell-based, mouse; details: 30 min, EC50 = 50% increase in AcH3K9 over basal
pCREB [2] = assay: PDE activity in wild type primary neurons (Western blot pCREB); type: cell-based; details: Mus musculus, Neuron, 0.5 h, 30 min, EC50 = 50% increase in pCREB over basal
[3] = tested on: phosphorylated tau (p-tau); assay: AD-related markers in Tg2576 neurons: pTau; type: cell-based; details: Mus musculus, Neuron, 48 h, treated two days, EC50 = 50% decrease in pTau over basal
pTau = assay: AD-related markers in Tg2576 mice after chronic treatment: pTau; type: in vivo, mouse; details: chronic treatment (3-5 weeks), hippocampal homogenates
Method: AD-related markers (APP processing, pTau and acetylated-tubulin) in Tg2576 mice. The effects of the compounds were also analysed in Tg2576 mice after chronic treatment (3-5 weeks) using hippocampal homogenates obtained in a buffer containing SDS (2%) and following the same protocol as described in the in vitro studies.

pCREB [4] = assay: In-vivo activity, hippocampus of wild type mice: pCREB; design: species or system mouse; details: i.p. 40 mg/kg, hippocampus one hour later
Method: as §1, §2

PDE9A isoform b = molecular target: T2, PDE9A isoform b (Homo sapiens, UniProt O76083); assay: PDE enzyme activity assay (HTRF cGMP), PDE9A; type: biochemical; details: recombinant enzyme; read-out: PDE9A inhibition (IC50)
T2 construct: they are full-length with N-terminal GST tag; GST (N); purchased BPS Biosciences 60090; host or cells: baculovirus infected Sf9 cells
T2 sequence (O76083 1-533 isoform O76083-2): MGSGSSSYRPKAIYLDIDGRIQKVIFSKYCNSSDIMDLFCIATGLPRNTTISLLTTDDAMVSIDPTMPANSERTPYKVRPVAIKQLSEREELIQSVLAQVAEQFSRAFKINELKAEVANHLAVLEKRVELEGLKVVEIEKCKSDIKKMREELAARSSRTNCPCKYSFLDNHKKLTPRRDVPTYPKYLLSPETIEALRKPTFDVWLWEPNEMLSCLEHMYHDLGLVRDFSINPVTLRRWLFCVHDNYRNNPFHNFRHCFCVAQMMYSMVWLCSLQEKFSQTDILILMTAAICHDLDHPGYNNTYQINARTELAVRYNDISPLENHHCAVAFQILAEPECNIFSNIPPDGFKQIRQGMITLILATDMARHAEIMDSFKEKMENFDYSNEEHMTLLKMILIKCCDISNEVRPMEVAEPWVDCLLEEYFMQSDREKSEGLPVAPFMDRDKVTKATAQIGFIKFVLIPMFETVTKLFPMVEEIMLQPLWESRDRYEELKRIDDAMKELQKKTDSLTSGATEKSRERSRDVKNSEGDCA

Sequence of PDE4D7 (Q08499 1-748 isoform Q08499-11): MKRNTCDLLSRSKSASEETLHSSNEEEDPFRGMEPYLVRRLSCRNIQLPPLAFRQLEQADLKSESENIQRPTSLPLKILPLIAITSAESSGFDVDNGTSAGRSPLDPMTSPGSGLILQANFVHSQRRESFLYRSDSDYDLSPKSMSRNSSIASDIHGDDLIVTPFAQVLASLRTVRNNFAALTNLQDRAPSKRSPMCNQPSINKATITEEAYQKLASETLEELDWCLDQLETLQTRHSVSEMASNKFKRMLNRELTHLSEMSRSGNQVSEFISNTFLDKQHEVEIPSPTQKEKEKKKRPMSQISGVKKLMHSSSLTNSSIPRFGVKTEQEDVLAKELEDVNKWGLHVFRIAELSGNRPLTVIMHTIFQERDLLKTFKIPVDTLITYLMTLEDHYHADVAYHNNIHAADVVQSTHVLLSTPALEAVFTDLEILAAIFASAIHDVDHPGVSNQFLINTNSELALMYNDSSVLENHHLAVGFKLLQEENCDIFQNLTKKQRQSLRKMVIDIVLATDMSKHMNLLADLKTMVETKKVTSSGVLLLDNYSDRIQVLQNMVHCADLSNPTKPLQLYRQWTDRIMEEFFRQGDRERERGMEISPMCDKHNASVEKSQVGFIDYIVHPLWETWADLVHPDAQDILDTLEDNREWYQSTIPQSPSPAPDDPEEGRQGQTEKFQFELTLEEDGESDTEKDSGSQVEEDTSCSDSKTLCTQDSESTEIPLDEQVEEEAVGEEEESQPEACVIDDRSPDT

| IC50 (PDE4D7) | IC50 (PDE4A1) | IC50 (HDAC1) | AcH3 (EC50) [1] | EC50 (pCREB [2]) | EC50 [3] | IC50 (PDE9A isoform b) | SMILES | AcH3, increment in biological response vs basal (AcH3) | pTau, increment in biological response vs basal (pTau) | pCREB, increment in biological response vs basal (pCREB [4]) |
| --- | --- | --- | --- | --- | --- | --- | --- | --- | --- | --- |
| > 10 µM | 1 to 10 µM | 10 to 1000 nM | – | – | – | – | COc1ccc(N(CCCCCCC(=O)NO)C(=O)c2c(Cl)cncc2Cl)cc1OC1CCCC1 [Example 5-05, 7-(N-[3,5-Dichloropyridin-4-ylcarbonyl]-N-[(3-(cyclopentyloxy)-4-methoxyphenyl)]amino)-N-hydroxyheptanamide] | – | – | – |
| – | – | > 10000 nM | N.E. | 10 to 1000 nM | 10 to 1000 nM | > 10 µM | CN1CC(=O)N2[C@H](c3ccc4c(c3)OCO4)c3[nH]c4ccccc4c3C[C@@H]2C1=O [Tadalafil, reference compound] | N.E. (N.E. means No Effect) | +++ (basal×2≦(+++)<basal×3) | +++ (basal×2≦(+++)<basal×3) |
